Each structure is given as a SMILES string. Where two headings read alike, the source gives them in different places.

One data set deals with Alternaria alternate. The data set can be described thus: Anti-fungal activity. The class given is cell-based. The following applies: against Alternaria alternate, standard drug Terinafine.
In another data set the target is urease (Canavalia ensiformis, UniProt P07374). Put plainly: biochemical. The class given is biochemical. How it is done: Figure S6. High resolution Proton NMR Spectrum of 3-chloro-N'- undecanoylbenzenesulfonohydrazide (4.13).
Chain of urease (P07374 whole entry, looked up): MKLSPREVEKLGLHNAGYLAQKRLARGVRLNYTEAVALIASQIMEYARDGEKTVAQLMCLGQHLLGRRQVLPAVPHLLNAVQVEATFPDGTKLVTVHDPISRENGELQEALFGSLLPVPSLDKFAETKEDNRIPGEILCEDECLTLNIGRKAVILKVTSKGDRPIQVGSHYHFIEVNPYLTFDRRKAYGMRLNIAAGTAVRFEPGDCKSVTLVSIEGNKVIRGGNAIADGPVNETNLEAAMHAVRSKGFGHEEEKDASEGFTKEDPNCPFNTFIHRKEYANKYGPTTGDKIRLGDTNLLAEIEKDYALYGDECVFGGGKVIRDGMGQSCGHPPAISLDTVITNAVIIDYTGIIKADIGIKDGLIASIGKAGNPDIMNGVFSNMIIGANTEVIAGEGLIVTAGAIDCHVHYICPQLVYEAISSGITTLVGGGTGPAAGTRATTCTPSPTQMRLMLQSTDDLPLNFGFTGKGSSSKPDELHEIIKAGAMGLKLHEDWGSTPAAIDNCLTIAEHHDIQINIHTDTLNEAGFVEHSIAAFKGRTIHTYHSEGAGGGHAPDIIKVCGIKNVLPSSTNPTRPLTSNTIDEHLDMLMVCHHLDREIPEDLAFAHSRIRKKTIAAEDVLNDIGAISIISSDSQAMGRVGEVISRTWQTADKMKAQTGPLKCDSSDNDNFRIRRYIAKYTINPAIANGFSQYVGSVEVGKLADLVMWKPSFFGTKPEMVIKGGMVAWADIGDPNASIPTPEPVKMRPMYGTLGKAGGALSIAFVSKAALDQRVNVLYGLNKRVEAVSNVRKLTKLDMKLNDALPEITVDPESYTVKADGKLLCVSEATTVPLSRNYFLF
4.16. Urease Assay Protocol
The reaction mixtures, which included […] of enzyme solution and […] of buffers containing 100 mM urea, were incubated in 96-well plates at 30 °C for 15 min with […] of the test compounds (0.5 mM concentration). The urea concentrations were adjusted from 2 -24 mM for the kinetics evaluation. By quantifying ammonia production with Weatherburn's indophenol technique, urease activity was determined.. To each well, 45 μL of the phenol reagent (1% w/v phenol and 0.005% w/v sodium nitroprusside) and 70 μL of the alkali reagent (0.5% w/v NaOH and 0.1% active chloride NaOCl) were added. Using a microplate reader, the rising absorbance at 630 nm was observed after 50 minutes (Molecular Device, USA). In a final volume of […], each reaction was carried out three times. Using the software SoftMaxPro, the results (change in absorbance per minute) were processed (molecular Device, USA). The experiments were run at pH 6.8 throughout. The formula 100-(ODtest well/ODcontrol) 100 was […]
used to calculate the percentage of inhibition. Thiourea was used as the standard inhibitor for […]
4.17. α-Glucosidase Inhibitory Assay Protocol […]
phosphate buffer (pH=6.8), were incubated at 37°C for 15 min in a 96-well plate. 20 µl of p-nitrophenyl—D-glucopyranoside solution was further added as a substrate and again incubated for 20 min at 37 °C. Sodium carbonate (50 µl of 0.1M) was added to terminate the reaction. P-nitrophenol was liberated, during the reaction which was measured at 405n m u sing an ELISA […]
conditions by omitting test samples. All the experiments were carried out in triplicates. The percentage inhibition was calculated by the formula.
% Inhibition = [(Ac – As) /Ac] × 100 Ac-absorbance for control, As-absorbance for standard.
4.18. Molecular Docking Assay
In this study the synthesized compounds were analyzed against α-amylase and α-glucosidase enzyme. […]

The mark [1] stands for this setting: read-out: Anti-Urease IC50 (µM ± SEM).

As to `CCCCC(=O)NNS(=O)(=O)c1ccc(F)cc1[N+](=O)[O-]` [Analog 5], in the data set on Alternaria alternate, the anti-fungal activity entry is on record as “exhibited anti-fungal profiles”. For the same compound, at urease, the IC50 (usually the concentration at which inhibition is half-maximal) was 2.1 ± 0.1 µM. Regarding `CCCCCCCCCCC(=O)NNS(=O)(=O)c1cccc(Cl)c1` [Analog 13, 3-chloro-N'-undecanoylbenzenesulfonohydrazide], the melting point (commonly the temperature, or range, at which the solid turns liquid) is 168 to 169 °C. The IC50 on urease (setting [1]) was 18.4 ± 0.3 µM. Regarding `NC(N)=S` [thiourea, reference compound], the half-maximal inhibitory concentration (IC50) on urease (setting [1]) amounted to 7.8 µM.

(Values after PMC9609496, “Synthesis, In Vitro Anti-Microbial Analysis and Molecular Docking Study of Aliphatic Hydrazide-Based Benzene Sulphonamide Derivatives as Potent Inhibitors of α-Glucosidase and Urease” (Molecules, 2022).)
